Reference: ChEMBL document CHEMBL3885881, “DrugMatrix”

Organism: Rattus norvegicus
Assay: DrugMatrix - Regimen: Daily Repeat
Type: toxicity, organism-based, Sprague-Dawley
Design: regimen Daily Repeat, gender Male, age 6-8 weeks
Details: in vivo, po, route oral GAVAGE, vehicle .5 % CMC; for ABSOLUTE BASOPHIL / ABSOLUTE EOSINOPHIL / ABSOLUTE LYMPHOCYTE / ABSOLUTE MONOCYTE / ABSOLUTE SEGMENTED NEUTROPHIL / BASOPHIL / EOSINOPHIL / ERYTHROCYTE COUNT / HEMATOCRIT / HEMOGLOBIN / LEUKOCYTE COUNT / LYMPHOCYTE / MEAN CORPUSCULAR HEMOGLOBIN / MEAN CORPUSCULAR HEMOGLOBIN CONCENTRATION / MEAN CORPUSCULAR VOLUME / MONOCYTE / NEUTROPHIL / NUCLEATED RED BLOOD CELLS / PLATELET COUNT: tissue Blood; for ALANINE AMINOTRANSFERASE / ALBUMIN / ALKALINE PHOSPHATASE / ASPARTATE AMINOTRANSFERASE / BLOOD UREA NITROGEN / CARBON DIOXIDE / CHLORIDE / CHOLESTEROL / CREATINE PHOSPHOKINASE / CREATININE / GLUCOSE / LACTATE DEHYDROGENASE / LIPASE / PHOSPHORUS / POTASSIUM / SODIUM / TOTAL BILIRUBIN / TOTAL PROTEIN / URIC ACID: tissue Plasma
[1] = 0 mg/kg, 72 h, dose level Control, time 3 day
[2] = 0 mg/kg, 120 h, dose level Control, time 5 day
[3] = 50 mg/kg, 72 h, dose level Low, time 3 day

CC(=O)O[C@]1(C(C)=O)CC[C@H]2[C@@H]3C=C(Cl)C4=CC(=O)[C@@H]5C[C@@H]5[C@]4(C)[C@H]3CC[C@@]21C [CYPROTERONE ACETATE]
ABSOLUTE BASOPHIL [1]: 0 CELLS/uL | ABSOLUTE EOSINOPHIL [1]: 0 CELLS/uL | ABSOLUTE LYMPHOCYTE [1]: 12191.17 CELLS/uL | ABSOLUTE MONOCYTE [1]: 183.17 CELLS/uL | ABSOLUTE SEGMENTED NEUTROPHIL [1]: 1192.33 CELLS/uL | BASOPHIL [1]: 0% | EOSINOPHIL [1]: 0% | ERYTHROCYTE COUNT [1]: 5.51 x10E6/uL | HEMATOCRIT [1]: 35.45% | HEMOGLOBIN [1]: 13.82 G/DL | LEUKOCYTE COUNT [1]: 13.57 x10E3/uL | LYMPHOCYTE [1]: 89.83% | MEAN CORPUSCULAR HEMOGLOBIN [1]: 25.1 pg | MEAN CORPUSCULAR HEMOGLOBIN CONCENTRATION [1]: 38.98 G/DL | MEAN CORPUSCULAR VOLUME [1]: 64.42 fL | MONOCYTE [1]: 1.33% | NEUTROPHIL [1]: 8.83% | NUCLEATED RED BLOOD CELLS [1]: 0 /100WBC | PLATELET COUNT [1]: 1118.17 x10E3/uL | ALANINE AMINOTRANSFERASE [1]: 55 u/L | ALBUMIN [1]: 4.15 G/DL | ALKALINE PHOSPHATASE [1]: 449.5 u/L | ASPARTATE AMINOTRANSFERASE [1]: 112.83 u/L | BLOOD UREA NITROGEN [1]: 17.33 mg/dL | CARBON DIOXIDE [1]: 29.5 mmol/L | CHLORIDE [1]: 101 MEQ/L | CHOLESTEROL [1]: 70 mg/dL | CREATINE PHOSPHOKINASE [1]: 1325.83 u/L | CREATININE [1]: 0.18 mg/dL | GLUCOSE [1]: 171.5 mg/dL | LACTATE DEHYDROGENASE [1]: 386 u/L | LIPASE [1]: 10 u/L | PHOSPHORUS [1]: 11.57 mg/dL | POTASSIUM [1]: 6.21 MEQ/L | SODIUM [1]: 141.65 MEQ/L | TOTAL BILIRUBIN [1]: 0.15 mg/dL | TOTAL PROTEIN [1]: 5.75 G/DL | URIC ACID [1]: 1.28 mg/dL | ABSOLUTE BASOPHIL [2]: 0 CELLS/uL | ABSOLUTE EOSINOPHIL [2]: 138.17 CELLS/uL | ABSOLUTE LYMPHOCYTE [2]: 13283.17 CELLS/uL | ABSOLUTE MONOCYTE [2]: 303.83 CELLS/uL | ABSOLUTE SEGMENTED NEUTROPHIL [2]: 1308.17 CELLS/uL | BASOPHIL [2]: 0% | EOSINOPHIL [2]: 1% | ERYTHROCYTE COUNT [2]: 5.32 x10E6/uL | HEMATOCRIT [2]: 33.8% | HEMOGLOBIN [2]: 13.63 G/DL | LEUKOCYTE COUNT [2]: 15.03 x10E3/uL | LYMPHOCYTE [2]: 88.33% | MEAN CORPUSCULAR HEMOGLOBIN [2]: 25.68 pg | MEAN CORPUSCULAR HEMOGLOBIN CONCENTRATION [2]: 40.35 G/DL | MEAN CORPUSCULAR VOLUME [2]: 63.67 fL | MONOCYTE [2]: 1.83% | NEUTROPHIL [2]: 8.83% | NUCLEATED RED BLOOD CELLS [2]: 0 /100WBC | PLATELET COUNT [2]: 1097.5 x10E3/uL | ALANINE AMINOTRANSFERASE [2]: 54.5 u/L | ALBUMIN [2]: 4.27 G/DL | ALKALINE PHOSPHATASE [2]: 337 u/L | ASPARTATE AMINOTRANSFERASE [2]: 94.67 u/L | BLOOD UREA NITROGEN [2]: 17 mg/dL | CARBON DIOXIDE [2]: 28.33 mmol/L | CHLORIDE [2]: 101.5 MEQ/L | CHOLESTEROL [2]: 71.33 mg/dL | CREATINE PHOSPHOKINASE [2]: 628.17 u/L | CREATININE [2]: 0.19 mg/dL | GLUCOSE [2]: 177.83 mg/dL | LACTATE DEHYDROGENASE [2]: 500.5 u/L | LIPASE [2]: 9.5 u/L | PHOSPHORUS [2]: 12.3 mg/dL | POTASSIUM [2]: 5.63 MEQ/L | SODIUM [2]: 143.03 MEQ/L | TOTAL BILIRUBIN [2]: 0.2 mg/dL | TOTAL PROTEIN [2]: 6.02 G/DL | URIC ACID [2]: 1.5 mg/dL | ABSOLUTE BASOPHIL [3]: 0 CELLS/uL | ABSOLUTE EOSINOPHIL [3]: 48.33 CELLS/uL | ABSOLUTE LYMPHOCYTE [3]: 14035.67 CELLS/uL | ABSOLUTE MONOCYTE [3]: 48.33 CELLS/uL | ABSOLUTE SEGMENTED NEUTROPHIL [3]: 1667.67 CELLS/uL | BASOPHIL [3]: 0% | EOSINOPHIL [3]: 0.33% | ERYTHROCYTE COUNT [3]: 5.31 x10E6/uL | HEMATOCRIT [3]: 35.1% | HEMOGLOBIN [3]: 13.77 G/DL | LEUKOCYTE COUNT [3]: 15.8 x10E3/uL | LYMPHOCYTE [3]: 88.67% | MEAN CORPUSCULAR HEMOGLOBIN [3]: 25.93 pg | MEAN CORPUSCULAR HEMOGLOBIN CONCENTRATION [3]: 39.23 G/DL | MEAN CORPUSCULAR VOLUME [3]: 66.13 fL | MONOCYTE [3]: 0.33% | NEUTROPHIL [3]: 10.67% | NUCLEATED RED BLOOD CELLS [3]: 0 /100WBC | PLATELET COUNT [3]: 1211 x10E3/uL | ALANINE AMINOTRANSFERASE [3]: 71.67 u/L | ALBUMIN [3]: 4.43 G/DL | ALKALINE PHOSPHATASE [3]: 396.67 u/L | ASPARTATE AMINOTRANSFERASE [3]: 84.67 u/L | BLOOD UREA NITROGEN [3]: 21.67 mg/dL | CARBON DIOXIDE [3]: 28 mmol/L | CHLORIDE [3]: 100.67 MEQ/L | CHOLESTEROL [3]: 88.33 mg/dL | CREATINE PHOSPHOKINASE [3]: 202.33 u/L | CREATININE [3]: 0.15 mg/dL | GLUCOSE [3]: 155.67 mg/dL | LACTATE DEHYDROGENASE [3]: 202 u/L | LIPASE [3]: 10.67 u/L | PHOSPHORUS [3]: 11.13 mg/dL | POTASSIUM [3]: 6.55 MEQ/L | SODIUM [3]: 141.9 MEQ/L | TOTAL BILIRUBIN [3]: 0.13 mg/dL | TOTAL PROTEIN [3]: 6.27 G/DL | URIC ACID [3]: 1.47 mg/dL
